Legend:
c-fms = c-fms (Homo sapiens (Human), UniProt P07333); assay: c-fms autophosphorylation fluorescence polarization competition immunoassay (1 nM c-fms; peptide Pi assay); type: biochemical; conditions: read-out: 1 nM c-fms, peptide Pi assay IC-50
Experimental: Fluorescence Polarization Competition Immunoassay
The assay buffer used was 100 mM 4-(2-hydroxyethyl)piperazine 1-ethanesulfonic acid (HEPES), pH 7.5, 1 mM 1,4-dithio-DL-threitol (DTT), 0.01% (v/v) Tween-20. Compounds were diluted in assay buffer containing 4% dimethylsulfoxide (DMSO) just prior to the assay. […] The kinase reaction was initiated by adding 2 μL of 5 mM ATP (Sigma) in assay buffer. […] Control reactions were ran in each plate: in positive and negative control wells, assay buffer (made 4% in DMSO) was substituted for the compound; in addition, positive control wells received 1.2 μL of 50 mM ethylenediaminetetraaceticacid (EDTA).
The plates were incubated at room temperature for 45 min. At the end of the incubation, the reaction was quenched with 1.2 μL of 50 mM EDTA (EDTA was not added to the positive control wells at this point; see above). Following a 5-min incubation, each well received 10 μL of a 1:1:3 mixture of anti-phosphotyrosine antibody, 10×, PTK green tracer, 10× (vortexed), FP dilution buffer, respectively (all from PanVera, cat. #P2837). The plate was covered, incubated for 30 min at room temperature and the fluorescence polarization was read on the Analyst. The instrument settings were: 485 nm excitation filter; 530 nm emission filter; Z height: middle of well; G factor: 0.93. […] The reported IC50 values are averages of three independent measurements.

[1] = test system: mouse bone-marrow derived macrophages (BMDM); assay: CSF-1-driven mouse bone-marrow derived macrophages proliferation assay (BrDU incorporation); type: cell-based; conditions: mCSF driven proliferation, read-out: mCSF driven proliferation BMDM (Mouse) IC-50
Experimental: CSF-1-Driven Mouse Bone-Marrow Derived Macrophages Assay
Macrophages are derived by culturing mouse bone marrow in alpha-MEM supplemented with 10% FCS and 50 ng/ml recombinant mouse CSF-1 in bacteriologic dishes. On the sixth day, macrophages are detached from dishes, washed, and resuspended to 0.05 million cells/ml in alpha-MEM containing 10% FCS. One hundred ul of cell suspension are distributed per well into 96 well culture plates. Wells are further supplemented with the addition of 50 ul media containing 15 ng/ml CSF-1, 3 uM Indomethacin, and 3× of a dilution series of test compounds. The cells are cultured for 30 hrs at 37 degrees and 5% CO2. During the final six hours, cultures are supplemented with an additional 30 ul of media containing a 1:500 dilution of bromodeoxyuridine (BrDU). At the end of the culture period, the plates are spun at 1000 RPM for 1 minute and 130 ul of media is removed with a pipet and replaced with 150 ul of fixative solution for 1 hour @ room temperature. The fixative is then dispelled from the plates and the plates allowed to air dry. Incorporation of BrDU into the fixed, dried cells is quantified using a specific ELISA.

Chain of c-fms (P07333 20-972): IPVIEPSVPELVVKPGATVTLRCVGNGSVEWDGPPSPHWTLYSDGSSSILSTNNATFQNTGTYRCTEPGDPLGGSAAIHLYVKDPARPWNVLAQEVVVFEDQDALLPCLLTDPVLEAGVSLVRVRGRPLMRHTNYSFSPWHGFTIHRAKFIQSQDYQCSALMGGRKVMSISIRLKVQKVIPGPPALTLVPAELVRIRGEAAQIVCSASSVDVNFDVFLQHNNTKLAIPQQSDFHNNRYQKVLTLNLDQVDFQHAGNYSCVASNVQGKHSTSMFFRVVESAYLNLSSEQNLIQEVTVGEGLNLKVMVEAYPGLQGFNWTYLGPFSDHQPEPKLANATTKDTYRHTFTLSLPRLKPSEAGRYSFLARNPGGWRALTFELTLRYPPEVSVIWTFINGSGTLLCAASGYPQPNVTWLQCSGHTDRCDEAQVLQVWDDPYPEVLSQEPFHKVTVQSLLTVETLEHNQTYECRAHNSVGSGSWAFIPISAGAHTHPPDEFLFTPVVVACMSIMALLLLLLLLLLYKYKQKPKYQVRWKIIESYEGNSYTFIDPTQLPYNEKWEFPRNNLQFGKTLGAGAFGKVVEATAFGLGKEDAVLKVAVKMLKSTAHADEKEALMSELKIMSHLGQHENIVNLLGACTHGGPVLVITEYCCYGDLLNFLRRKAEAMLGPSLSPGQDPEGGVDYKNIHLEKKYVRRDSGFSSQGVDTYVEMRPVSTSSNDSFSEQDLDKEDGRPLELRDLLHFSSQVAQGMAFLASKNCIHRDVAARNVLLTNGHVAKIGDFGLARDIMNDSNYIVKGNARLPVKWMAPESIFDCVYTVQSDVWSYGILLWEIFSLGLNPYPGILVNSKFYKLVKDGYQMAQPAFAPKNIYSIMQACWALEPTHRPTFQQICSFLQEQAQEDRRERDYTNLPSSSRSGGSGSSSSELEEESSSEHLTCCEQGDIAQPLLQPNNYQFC

SMILES | IC50 (c-fms) [nM] | IC50 [1] [nM]
CC1(c2ccc(NC(=O)c3ncc(C#N)[nH]3)c(C3=CCCCC3)c2)OCCO1 [Example 1, 5-Cyano-1H-imidazole-2-carboxylic acid [2-cyclohex-1-enyl-4-(2-methyl-[1,3]dioxolan-2-yl)-phenyl]-amide] | 3.4 | 48
CC1(c2ccc(NC(=O)c3nc(C#N)c[nH]3)c(C3=CCCCC3)c2)OCCCO1 [Example 2, 4-Cyano-1H-imidazole-2-carboxylic acid [2-cyclohex-1-enyl-4-(2-methyl-[1,3]dioxan-2-yl)-phenyl]-amide] | 3.9 | 44
